Legend:
Format in all cases: cell-based
Conditions in all cases: Table A; BaF3 cells, 3 days
EGFR wt = biological target: T1, EGFR wt (Homo sapiens, UniProt P00533); experiment: BaF3 cell proliferation assay (CellTiterGlo), EGFR wt
T1 construct: expressed in transfected cells; host or cells: BaF3 (murine pro-B) cells, retroviral transduction with pMXs-IRES-Blasticidin
Protocol: (§1) Retroviral Production: EGFR mutants were subcloned into pMXs-IRES-Blasticidin (RTV-016, Cell Biolabs, San Diego, CA). Retroviral expression vector retrovirus was produced by transient transfection of HEK 293T cells with the retroviral EGFR mutant expression vector pMXs-IRES-Blasticidin (RTV-016, Cell Biolabs), pCMV-Gag-Pol vector and pCMV-VSV-G-Envelope vector. Briefly, HEK 293T/17 cells were plated in 100 mm collagen coated plate (354450, Corning Life Sciences, Tewksbury, MA) (4×10^5 per plate) and incubated overnight. The next day, retroviral plasmids (3 ng of EGFR mutant, 1.0 ng of pCMV-Gag-Pol and 0.5 ng pCMV-VSV-G) were mixed in 500 n1 of Optimem (31985, Life Technologies). The mixture was incubated at room temperature for 5 min and then added to Optimem containing transfection reagent Lipofectamine (11668, Invitrogen) and incubated for 20 minutes. Mixture was then added dropwise to HEK 293T cells. The next day the medium was replaced with fresh culture medium and retrovirus was harvested @ 24 and 48 hrs.
(§2) Generation of EGFR mutant stable cell lines: BaF3 cells (1.5E5 cells) were infected with 1 ml of viral supernatant supplemented with 8 ng/ml polybrene by centrifuging for 30 min at 1000 rpm. Cells were placed in a 37° C. incubator overnight. Cells were then spun for 5 minutes to pellet the cells. Supernatant was removed and cells re-infected a fresh 1 ml of viral supernatant supplemented with 8 ng/ml polybrene by centrifuging for 30 min at 1000 rpm. Cells were placed in 37° C. incubator overnight. Cells were then maintained in RPMI containing 10% Heat Inactivated FBS, 2% L-glutamine containing 10 ng/ml IL-3. After 48 hours cells were selected for retroviral infection in 10 […] for one week. Blasticidin resistant populations were washed twice in phosphate buffered saline before plating in media lacking IL-3 to select for IL-3 independent growth.
(§3) Assay for cell proliferation: BaF3 cell lines were resuspended at 1.3E5 c/ml in RPMI containing 10% Heat Inactivated FBS, 2% L-glutamine and 1% Pen/Strep and dispensed in triplicate (17.5E4 c/well) into 96 well plates. To determine the effect of drug on cell proliferation, cells incubated for 3 days in the presence of vehicle control or test drug at varying concentrations. Inhibition of cell growth was determined by luminescent quantification of intracellular ATP content using CellTiterGlo (Promega), according to the protocol provided by the manufacturer. Comparison of cell number on day 0 versus 72 hours post drug treatment was used to plot dose-response curves. The number of viable cells was determined and normalized to vehicle-treated controls. Inhibition of proliferation, relative to vehicle-treated controls was expressed as a fraction of 1 and graphed using PRISM® software (Graphpad Software, San Diego, CA). EC50 values were determined with the same application.

EGFR V3 = biological target: T2, EGFR V3 (Homo sapiens, UniProt P00533, DELINS30-297G); experiment: BaF3 cell proliferation assay (CellTiterGlo), EGFR V3
T2 construct: expressed in transfected cells; host or cells: BaF3 (murine pro-B) cells, retroviral transduction with pMXs-IRES-Blasticidin
T2 sequence (P00533 with tags, fused parts or gaps DELINS30-297G): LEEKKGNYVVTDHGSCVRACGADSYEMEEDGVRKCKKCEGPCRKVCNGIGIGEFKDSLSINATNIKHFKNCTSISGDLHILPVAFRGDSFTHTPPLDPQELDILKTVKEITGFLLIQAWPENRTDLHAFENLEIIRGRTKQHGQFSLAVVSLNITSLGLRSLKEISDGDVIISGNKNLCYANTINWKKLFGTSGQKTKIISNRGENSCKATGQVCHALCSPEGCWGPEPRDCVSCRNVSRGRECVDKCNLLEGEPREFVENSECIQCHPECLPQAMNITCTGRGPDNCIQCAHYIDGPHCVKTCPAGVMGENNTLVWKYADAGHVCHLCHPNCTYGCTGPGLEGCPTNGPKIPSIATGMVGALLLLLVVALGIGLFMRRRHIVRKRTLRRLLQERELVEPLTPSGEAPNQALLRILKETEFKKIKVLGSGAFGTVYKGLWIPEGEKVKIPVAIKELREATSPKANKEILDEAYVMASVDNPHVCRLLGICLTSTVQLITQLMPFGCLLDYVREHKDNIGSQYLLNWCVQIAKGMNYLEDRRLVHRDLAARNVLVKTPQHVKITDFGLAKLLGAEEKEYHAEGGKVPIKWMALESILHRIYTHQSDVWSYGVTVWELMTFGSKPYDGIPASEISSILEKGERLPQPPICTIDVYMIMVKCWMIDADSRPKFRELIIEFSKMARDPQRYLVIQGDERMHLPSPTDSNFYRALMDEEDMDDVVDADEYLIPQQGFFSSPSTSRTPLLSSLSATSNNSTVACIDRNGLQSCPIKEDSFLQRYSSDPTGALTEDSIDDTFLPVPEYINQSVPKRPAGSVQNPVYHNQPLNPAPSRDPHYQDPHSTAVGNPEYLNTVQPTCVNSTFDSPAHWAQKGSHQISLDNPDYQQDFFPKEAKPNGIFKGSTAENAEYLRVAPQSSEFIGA
Protocol: as §1, §2, §3

HER2 S310F = biological target: T3, HER2 S310F (Homo sapiens, UniProt P04626, S310F); experiment: BaF3 cell proliferation assay (CellTiterGlo), HER2 S310F
T3 construct: expressed in transfected cells; host or cells: BaF3 (murine pro-B) cells
T3 sequence (P04626 23-1255 S310F): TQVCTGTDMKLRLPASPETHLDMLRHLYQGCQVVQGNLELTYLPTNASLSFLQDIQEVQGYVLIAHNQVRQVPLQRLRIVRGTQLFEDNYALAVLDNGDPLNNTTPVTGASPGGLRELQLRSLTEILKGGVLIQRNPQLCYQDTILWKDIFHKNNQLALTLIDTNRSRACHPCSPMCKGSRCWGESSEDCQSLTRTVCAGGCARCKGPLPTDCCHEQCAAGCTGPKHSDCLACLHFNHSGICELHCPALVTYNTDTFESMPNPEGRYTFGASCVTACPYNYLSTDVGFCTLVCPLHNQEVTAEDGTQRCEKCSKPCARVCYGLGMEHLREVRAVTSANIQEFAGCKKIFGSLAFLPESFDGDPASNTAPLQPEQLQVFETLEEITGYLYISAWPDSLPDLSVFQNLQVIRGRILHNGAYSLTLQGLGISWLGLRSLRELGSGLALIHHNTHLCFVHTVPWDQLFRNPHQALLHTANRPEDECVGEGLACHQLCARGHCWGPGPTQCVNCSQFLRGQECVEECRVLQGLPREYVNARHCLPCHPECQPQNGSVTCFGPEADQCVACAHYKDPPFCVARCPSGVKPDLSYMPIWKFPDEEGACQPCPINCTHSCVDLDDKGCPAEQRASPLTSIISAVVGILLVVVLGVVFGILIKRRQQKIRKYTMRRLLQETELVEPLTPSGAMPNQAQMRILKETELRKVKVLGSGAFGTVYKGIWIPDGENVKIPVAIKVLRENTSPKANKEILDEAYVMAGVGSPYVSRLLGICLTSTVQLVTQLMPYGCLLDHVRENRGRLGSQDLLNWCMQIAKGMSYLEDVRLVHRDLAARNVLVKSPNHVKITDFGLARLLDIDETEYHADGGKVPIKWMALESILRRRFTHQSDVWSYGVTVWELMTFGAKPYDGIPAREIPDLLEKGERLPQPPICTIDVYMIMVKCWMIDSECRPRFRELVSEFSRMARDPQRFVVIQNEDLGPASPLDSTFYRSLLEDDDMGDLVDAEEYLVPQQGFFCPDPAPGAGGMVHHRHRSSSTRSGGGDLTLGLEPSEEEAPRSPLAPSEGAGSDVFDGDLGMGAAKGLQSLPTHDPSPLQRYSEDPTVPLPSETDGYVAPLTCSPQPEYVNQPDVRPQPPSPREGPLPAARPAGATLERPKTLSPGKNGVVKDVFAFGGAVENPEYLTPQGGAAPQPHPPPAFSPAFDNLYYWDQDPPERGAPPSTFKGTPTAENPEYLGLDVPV

HER2 YVMA = biological target: T4, HER2 YVMA (Homo sapiens, UniProt P04626, INS775YVMA); experiment: BaF3 cell proliferation assay (CellTiterGlo), HER2 YVMA
T4 construct: expressed in transfected cells; host or cells: BaF3 (murine pro-B) cells
T4 sequence (P04626 with tags, fused parts or gaps INS775YVMA): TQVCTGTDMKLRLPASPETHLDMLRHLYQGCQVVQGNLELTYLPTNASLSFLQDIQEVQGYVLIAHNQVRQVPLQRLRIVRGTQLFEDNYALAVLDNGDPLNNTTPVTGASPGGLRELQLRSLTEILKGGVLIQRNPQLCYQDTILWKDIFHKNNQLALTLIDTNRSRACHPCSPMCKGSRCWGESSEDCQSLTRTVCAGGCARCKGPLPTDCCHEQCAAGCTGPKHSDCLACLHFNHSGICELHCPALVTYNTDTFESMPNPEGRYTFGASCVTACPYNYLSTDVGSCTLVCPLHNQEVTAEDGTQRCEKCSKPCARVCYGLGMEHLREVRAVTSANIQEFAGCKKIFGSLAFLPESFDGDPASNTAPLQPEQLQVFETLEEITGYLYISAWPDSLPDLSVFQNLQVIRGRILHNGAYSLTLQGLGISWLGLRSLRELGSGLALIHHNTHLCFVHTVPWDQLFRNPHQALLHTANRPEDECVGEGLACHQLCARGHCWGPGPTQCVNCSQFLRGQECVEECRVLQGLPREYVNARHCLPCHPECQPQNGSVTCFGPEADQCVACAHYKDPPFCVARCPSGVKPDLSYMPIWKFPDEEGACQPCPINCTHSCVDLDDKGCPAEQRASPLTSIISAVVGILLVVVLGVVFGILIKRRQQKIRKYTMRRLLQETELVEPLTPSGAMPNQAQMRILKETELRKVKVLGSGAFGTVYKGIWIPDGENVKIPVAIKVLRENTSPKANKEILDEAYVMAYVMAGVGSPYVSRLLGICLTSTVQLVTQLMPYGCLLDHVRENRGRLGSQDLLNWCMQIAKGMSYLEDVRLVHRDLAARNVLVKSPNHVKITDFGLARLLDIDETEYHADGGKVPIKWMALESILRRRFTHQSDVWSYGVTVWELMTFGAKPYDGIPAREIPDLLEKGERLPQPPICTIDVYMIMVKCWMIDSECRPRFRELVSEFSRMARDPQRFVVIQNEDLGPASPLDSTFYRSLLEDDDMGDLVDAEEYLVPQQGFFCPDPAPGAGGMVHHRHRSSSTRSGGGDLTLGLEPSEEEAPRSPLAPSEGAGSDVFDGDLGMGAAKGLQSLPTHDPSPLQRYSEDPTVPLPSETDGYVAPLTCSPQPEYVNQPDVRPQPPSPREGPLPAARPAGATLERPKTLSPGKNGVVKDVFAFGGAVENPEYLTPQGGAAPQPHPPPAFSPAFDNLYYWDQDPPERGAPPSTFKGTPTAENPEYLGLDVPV

T1 sequence (P00533 25-1210): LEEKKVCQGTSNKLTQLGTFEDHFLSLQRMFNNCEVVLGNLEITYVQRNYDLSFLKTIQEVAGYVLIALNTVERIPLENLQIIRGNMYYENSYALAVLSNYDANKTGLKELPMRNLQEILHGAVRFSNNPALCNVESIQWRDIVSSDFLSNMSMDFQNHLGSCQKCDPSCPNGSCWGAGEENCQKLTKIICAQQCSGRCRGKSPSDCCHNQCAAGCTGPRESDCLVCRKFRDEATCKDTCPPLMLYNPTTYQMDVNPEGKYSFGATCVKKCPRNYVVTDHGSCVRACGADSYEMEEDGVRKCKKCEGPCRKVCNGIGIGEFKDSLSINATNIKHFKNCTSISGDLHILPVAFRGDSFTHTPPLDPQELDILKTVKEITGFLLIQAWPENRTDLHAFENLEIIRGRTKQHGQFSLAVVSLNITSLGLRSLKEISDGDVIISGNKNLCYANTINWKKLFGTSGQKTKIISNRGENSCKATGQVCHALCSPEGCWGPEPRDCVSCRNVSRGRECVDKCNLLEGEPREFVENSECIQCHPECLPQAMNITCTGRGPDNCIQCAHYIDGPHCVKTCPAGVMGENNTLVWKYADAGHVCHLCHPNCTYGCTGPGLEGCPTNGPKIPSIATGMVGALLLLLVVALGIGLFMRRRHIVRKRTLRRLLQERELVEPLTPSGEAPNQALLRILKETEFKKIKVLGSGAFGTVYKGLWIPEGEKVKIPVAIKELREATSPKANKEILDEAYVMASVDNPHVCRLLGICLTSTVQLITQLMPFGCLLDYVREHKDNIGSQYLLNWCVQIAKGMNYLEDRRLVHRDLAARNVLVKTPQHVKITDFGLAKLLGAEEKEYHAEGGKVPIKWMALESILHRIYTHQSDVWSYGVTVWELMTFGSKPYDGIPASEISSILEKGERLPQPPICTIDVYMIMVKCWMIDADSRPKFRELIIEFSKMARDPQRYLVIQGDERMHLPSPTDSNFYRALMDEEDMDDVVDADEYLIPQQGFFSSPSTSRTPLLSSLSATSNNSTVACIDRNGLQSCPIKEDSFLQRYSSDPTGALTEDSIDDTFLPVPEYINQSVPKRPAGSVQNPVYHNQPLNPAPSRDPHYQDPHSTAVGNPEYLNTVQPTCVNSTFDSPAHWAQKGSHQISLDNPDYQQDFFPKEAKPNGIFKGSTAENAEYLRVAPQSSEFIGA

Row | IC50 (EGFR wt) [nM] | IC50 (EGFR V3) [nM] | IC50 (HER2 S310F) [nM] | IC50 (HER2 YVMA) [nM] | Structure (SMILES)
1 | > 500 | 50 to 100 | ≤ 50 | 100 to 500 | C=CC(=O)Nc1cc2c(Nc3ccc(OCc4ccccn4)c(Cl)c3)ncnc2cc1C#C[C@@]1(C)CCCN1C [Compound 16, (R)—N-(4-((3-chloro-4-(pyridin-2-ylmethoxy)phenyl)amino)-7-((1,2-dimethylpyrrolidin-2-yl)ethynyl)quinazolin-6-yl)acrylamide]
2 | ≤ 50 | ≤ 50 | 50 to 100 | 100 to 500 | C=CC(=O)Nc1cc2c(Nc3ccc(Cl)c(Cl)c3F)ncnc2cc1C#CC1(C)CCN(C)C1 (stereo not drawn) [Compound 7, N-(4-((3,4-dichloro-2-fluorophenyl)amino)-7-((1,3-dimethylpyrrolidin-3-yl)ethynyl)quinazolin-6-yl)acrylamide]
3 | 100 to 500 | ≤ 50 | 100 to 500 | > 500 | C=CC(=O)Nc1cc2c(Nc3cccc(Cl)c3F)ncnc2cc1C#C[C@@]1(F)CCN(C)C1 [Compound 45, N-{4-[(3-chloro-2-fluorophenyl)amino]-7-{2-[(3S)-3-fluoro-1-methylpyrrolidin-3-yl]ethynyl}quinazolin-6-yl}prop-2-enamide]
4 | 100 to 500 | ≤ 50 | 100 to 500 | > 500 | C=CC(=O)Nc1cc2c(Nc3cccc(Cl)c3F)ncnc2cc1C#CC12CCC(CC1)N2C [Compound 10, N-(4-((3-chloro-2-fluorophenyl)amino)-7-((7-methyl-7-azabicyclo[2.2.1]heptan-1-yl)ethynyl)quinazolin-6-yl)acrylamide]
5 | ≤ 50 | ≤ 50 | 100 to 500 | 100 to 500 | C=C(F)C(=O)Nc1cc2c(Nc3cccc(Cl)c3F)ncnc2cc1C#CC1(C)CCN(C)C1 (stereo not drawn) [Compound 5, N-(4-((3-chloro-2-fluorophenyl)amino)-7-((1,3-dimethylpyrrolidin-3-yl)ethynyl)quinazolin-6-yl)-2-fluoroacrylamide]
6 | > 500 | 100 to 500 | 100 to 500 | > 500 | C=CC(=O)Nc1cc2c(Nc3cccc(Cl)c3F)ncnc2cc1C#CC1(C)CN(C)CC1(F)F (stereo not drawn) [Compound 55, N-(4-((3-chloro-2-fluorophenyl)amino)-7-((4,4-difluoro-1,3-dimethylpyrrolidin-3-yl)ethynyl)quinazolin-6-yl)acrylamide]
7 | > 500 | 100 to 500 | 100 to 500 | > 500 | C=CC(=O)Nc1cc2c(Nc3cccc(Cl)c3F)ncnc2cc1C#CC1(C(F)(F)F)CCN(C)C1 (stereo not drawn) [Compound 62, N-(4-((3-chloro-2-fluorophenyl)amino)-7-((1-methyl-3-(trifluoromethyl)pyrrolidin-3-yl)ethynyl)quinazolin-6-yl)acrylamide]
8 | 100 to 500 | ≤ 50 | 50 to 100 | > 500 | CC#CC(=O)Nc1cc2c(Nc3cccc(Cl)c3F)ncnc2cc1C#C[C@@H]1[C@H]2CN(C)C[C@@H]12 [Compound 74, N-(4-((3-chloro-2-fluorophenyl)amino)-7-(((1R,5S,6s)-3-methyl-3-azabicyclo[3.1.0]hexan-6-yl)ethynyl)quinazolin-6-yl)but-2-ynamide]
9 | 100 to 500 | ≤ 50 | 100 to 500 | > 500 | C=CC(=O)Nc1cc2c(Nc3cccc(Cl)c3F)ncnc2cc1C#CC1(C)CCN(CCF)C1 (stereo not drawn) [Compound 56, N-(4-((3-chloro-2-fluorophenyl)amino)-7-((1-(2-fluoroethyl)-3-methylpyrrolidin-3-yl)ethynyl)quinazolin-6-yl)acrylamide]
10 | ≤ 50 | 100 to 500 | 100 to 500 | > 500 | COC/C=C/C(=O)Nc1cc2c(Nc3cccc(Cl)c3F)ncnc2cc1C#C[C@@]12C[C@@H]1CN(C)C2 [Compound 21, (E)-N-(4-((3-chloro-2-fluorophenyl)amino)-7-(((1R,5S)-3-methyl-3-azabicyclo[3.1.0]hexan-1-yl)ethynyl)quinazolin-6-yl)-4-methoxybut-2-enamide]

Second part, the compound before the results:

Row | Structure (SMILES) | IC50 (EGFR wt) [nM] | IC50 (EGFR V3) [nM] | IC50 (HER2 S310F) [nM] | IC50 (HER2 YVMA) [nM]
11 | C=CC(=O)Nc1cc2c(Nc3cccc(Cl)c3F)ncnc2cc1C#CC1(C)CCN(C2COC2)C1 (stereo not drawn) [Compound 69, N-(4-((3-chloro-2-fluorophenyl)amino)-7-((3-methyl-1-(oxetan-3-yl)pyrrolidin-3-yl)ethynyl)quinazolin-6-yl)acrylamide] | 100 to 500 | ≤ 50 | 100 to 500 | > 500
12 | CN1CC[C@](C)(C#Cc2cc3ncnc(Nc4cccc(Cl)c4F)c3cc2NC(=O)/C=C/CN2CCOCC2)C1 [Compound No. 81, (R,E)-N-(4-((3-chloro-2-fluorophenyl)amino)-7-((1,3-dimethylpyrrolidin-3-yl)ethynyl)quinazolin-6-yl)-4-morpholinobut-2-enamide] | – | 100 to 500 | > 500 | > 500
13 | C=CC(=O)Nc1cc2c(Nc3cccc(Cl)c3F)ncnc2cc1C#CC1(C)CCN(C)CC1 [Compound 4, N-(4-((3-chloro-2-fluorophenyl)amino)-7-((1,4-dimethylpiperidin-4-yl)ethynyl)quinazolin-6-yl)acrylamide] | 50 to 100 | ≤ 50 | 100 to 500 | 100 to 500
14 | C=CC(=O)Nc1cc2c(Nc3ccc(OCc4cccc(F)c4)c(Cl)c3)ncnc2cc1C#CC1(C)CCOC1 (stereo not drawn) [Compound 61, N-(4-((3-chloro-4-((3-fluorobenzyl)oxy)-phenyl)amino)-7-((3-methyltetrahydrofuran-3-yl)ethynyl)quinazolin-6-yl)acrylamide] | > 500 | 100 to 500 | 50 to 100 | 100 to 500
15 | C=CC(=O)Nc1cc2c(Nc3ccc(Cl)c(Cl)c3F)ncnc2cc1C#CC1C2COCC12 (stereo not drawn) [Compound No. 80, N-(7-(3-oxabicyclo[3.1.0]hexan-6-ylethynyl)-4-((3,4-dichloro-2-fluorophenyl)amino)quinazolin-6-yl)acrylamide] | 50 to 100 | ≤ 50 | 50 to 100 | 100 to 500
16 | C=CC(=O)Nc1cc2c(Nc3cccc(Cl)c3F)ncnc2cc1C#C[C@@]12C[C@@H]1CN(C1COC1)C2 [Compound 50, N-(4-((3-chloro-2-fluorophenyl)amino)-7-(((1R,5S)-3-(oxetan-3-yl)-3-azabicyclo[3.1.0]hexan-1-yl)ethynyl)quinazolin-6-yl)acrylamide] | 50 to 100 | ≤ 50 | 50 to 100 | 100 to 500
17 | C=CC(=O)Nc1cc2c(Nc3cccc(Cl)c3F)ncnc2cc1C#CC1CCN(C)C1 (stereo not drawn) [Compound 77, N-(4-((3-chloro-2-fluorophenyl)amino)-7-((1-methylpyrrolidin-3-yl)ethynyl)quinazolin-6-yl)acrylamide] | ≤ 50 | ≤ 50 | ≤ 50 | 100 to 500
18 | C=CC(=O)Nc1cc2c(Nc3cccc(Cl)c3F)ncnc2cc1C#C[C@@]12C[C@@H]1CN(C)C2 [Compound 51, N-(4-((3-chloro-2-fluorophenyl)amino)-7-(((1R,5S)-3-methyl-3-azabicyclo[3.1.0]hexan-1-yl)ethynyl)quinazolin-6-yl)acrylamide] | 50 to 100 | ≤ 50 | ≤ 50 | 100 to 500
19 | C=CC(=O)Nc1cc2c(Nc3cccc(Cl)c3F)ncnc2cc1C#C[C@@]1(C)CCCN1C [Compound 6, (R)—N-(4-((3-chloro-2-fluorophenyl)amino)-7-((1,2-dimethylpyrrolidin-2-yl)-ethynyl)quinazolin-6-yl)acrylamide] | > 500 | 50 to 100 | 100 to 500 | > 500
20 | CN1C[C@H]2C[C@@]2(C#Cc2cc3ncnc(Nc4cccc(Cl)c4F)c3cc2NC(=O)C(F)Cl)C1 (stereo partly drawn) [Compound 23, 2-chloro-N-(4-((3-chloro-2-fluorophenyl)-amino)-7-(((1R,5S)-3-methyl-3-azabicyclo[3.1.0]hexan-1-yl)ethynyl)quinazolin-6-yl)-2-fluoroacetamide] | 50 to 100 | > 500 | 100 to 500 | –

— patent US12435046B2, “Alkynyl quinazoline compounds” (Black Diamond Therapeutics, Inc., priority 2019, dated 2025)
